Data as given in US20250042886A1, “BIS(HETERO)ARYL THIOETHER OXADIAZINES AS FUNGICIDAL COMPOUNDS” (Bayer Aktiengesellschaft, priority 2021, published 2025).

How the values were obtained:
Pyricularia oryzae = assay: microbe, parasite or virus in culture; assay type: cell-based; details: 120 h, read-out: efficacy (inhibition of fungal growth), 50 μMol/l of active ingredient, liquid culture, 5 days incubation
[1] = Measurement of Log P values by HPLC on reversed phase columns (EEC directive 79/831 Annex V.A8); assay type: physicochemical; details: Table 1, compounds of formula (I); method [a]: LC-UV, acidic range, 0.1% formic acid in water and acetonitrile
Alternaria brassicae = assay: In vivo preventive test on Alternaria brassicae (leaf spot on radish or cabbage); details: 500 ppm of active ingredient, sprayed on young radish or cabbage plants 24 h before inoculation, evaluated 3 to 4 days after inoculation, read-out: efficacy
Method: B-1. […] The active ingredients were made soluble and homogenized in a mixture of Dimethyl sulfoxide/Acetone//Tween® 80 and then diluted in water to the desired concentration. The young plants of radish or cabbage were treated by spraying the active ingredient prepared as described above. Control plants were treated only with an aqueous solution of Acetone/Dimethyl sulfoxide/Tween® 80. After 24 hours, the plants were contaminated by spraying the leaves with an aqueous suspension of Alternaria brassicae spores.

Fusarium culmorum = Fusarium culmorum in vitro cell test; assay type: cell-based; details: 120 h, 50 μMol/l of active ingredient, liquid culture, 5 days incubation, read-out: efficacy (inhibition of fungal growth)
Method: B-10. Fusarium culmorum In Vitro Cell Test • Solvent: DMSO • Culture medium: 1 g KH2PO4 (VWR), 1 g K2HPO4 (VWR), 0.5 g Urea (VWR), 3 g KNO3 (Prolabo), 10 g saccharose (VWR), 0.5 g MgSO4, 7H2O (Sigma), 0.07 g CaCl2, 2H2O (Prolabo), 0.2 mg MnSO4, H2O (Sigma), 0.6 mg CuSO4, 5H2O (Sigma), 7.9 mg ZnSO4, 7H2O (Sigma), 0.1 mg H3BO3 (Merck), 0.14 mg NaMoO4, 2H2O (Sigma), 2 mg thiamine (Sigma), 0.1 mg biotine (VWR), 4 mg FeSO4, 7H2O (Sigma), QSP 1 liter • Inoculum: spores suspension
Fungicides were solubilized in DMSO and the solution used to prepare the required range of concentrations. The final concentration of DMSO used in the assay was ≤1%.
A spore suspension of F. culmorum was prepared and diluted to the desired spore density.
Fungicides were evaluated for their ability to inhibit spore germination and mycelium growth in liquid culture assay. The compounds were added in the desired concentration to the culture medium with spores. After 5 days incubation, fungi-toxicity of compounds was determined by spectrometric measurement of mycelium growth. Inhibition of fungal growth was determined by comparing the absorbance values in wells containing the fungicides with the absorbance in control wells without fungicides.

[2] = system: Colletotrichum lindemuthianum; assay: Colletotrichum lindemuthianum in vitro cell test; assay type: cell-based; details: 144 h, 50 μMol/l of active ingredient, liquid culture, 6 days incubation, read-out: efficacy (inhibition of fungal growth)
Method: (§1) B-7. Colletotrichum lindemuthianum In Vitro Cell Test • Solvent: DMSO • Culture medium: 14.6 g anhydrous D-glucose (VWR), 7.1 g Mycological Peptone (Oxoid), 1.4 g granulated Yeast Extract (Merck), QSP 1 liter • Inoculum: spores suspension Fungicides were solubilized in DMSO and the solution used to prepare the required range of concentrations. […] A spore suspension of C. lindemuthianum was prepared and diluted to the desired spore density. Fungicides were evaluated for their ability to inhibit spores germination and mycelium growth in liquid culture assay. The compounds were added in the desired concentration to the culture medium with spores. After 6 days incubation, fungi-toxicity of compounds was determined by spectrometric measurement of mycelium growth. Inhibition of fungal growth was determined by comparing the absorbance values in wells containing the fungicides with the absorbance in control wells without fungicides.

Alternaria alternata = Alternaria alternata in vitro cell test; assay type: cell-based; details: 120 h, 50 μMol/l of active ingredient, liquid culture, 5 days incubation, read-out: efficacy (inhibition of fungal growth)
Method: as §1, with “B-5. Alternaria alternata In” for “B-7. Colletotrichum lindemuthianum In”, “of A. alternata” for “of C. lindemuthianum”, “inhibit spore” for “inhibit spores”, “After 5” for “After 6”

Pyrenophora teres = Pyrenophora teres in vitro cell test; assay type: cell-based; details: 144 h, 50 μMol/l of active ingredient, liquid culture, 6 days incubation, read-out: efficacy (inhibition of fungal growth)
Method: as §1, with “B-8. Pyrenophora teres In” for “B-7. Colletotrichum lindemuthianum In”, “Inoculum: spore” for “Inoculum: spores”, “of P. teres” for “of C. lindemuthianum”, “inhibit spore” for “inhibit spores”

Botrytis cinerea [3] = assay: In vivo preventive test on Botrytis cinerea (grey mould); details: 500 ppm of active ingredient, sprayed on young gherkin or cabbage plants 24 h before inoculation, evaluated 4 to 5 days after inoculation, read-out: efficacy
Method: The active ingredients were made soluble and homogenized in a mixture of Dimethyl sulfoxide/Acetone//Tween® 80 and then diluted in water to the desired concentration. The young plants of gherkin or cabbage were treated by spraying the active ingredient prepared as described above. Control plants were treated only with an aqueous solution of Acetone/Dimethyl sulfoxide/Tween® 80. After 24 hours, the plants were contaminated by spraying the leaves with an aqueous suspension of Botrytis cinerea spores.

Botrytis cinerea [4] = assay: Botrytis cinerea in vitro cell test; assay type: cell-based; details: 144 h, 50 μMol/l of active ingredient, liquid culture, 6 days incubation, read-out: efficacy (inhibition of fungal growth)
In short: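 Compounds from DMSO stocks added at a range of concentrations to a defined mineral-salt/sucrose liquid medium inoculated with B. cinerea spores. After 6 days' incubation, mycelium growth was read by absorbance; inhibition of germination and growth was calculated against fungicide-free control wells.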

Cc1cc([C@H]2CON=C(c3c(Sc4cccc(F)c4)nnc(C)c3C)N2)c(C)s1 (racemic) [Compound I-050]
inhibition at 50 µM (Pyricularia oryzae): 90 to 100%
chromatographic logP [1]: 3.16
pest or weed control at 500 ppm (Alternaria brassicae): 90 to 100%
inhibition at 50 µM (Fusarium culmorum): 90 to 100%
inhibition at 50 µM [2]: 90 to 100%
inhibition at 50 µM (Alternaria alternata): 90 to 100%
inhibition at 50 µM (Pyrenophora teres): 90 to 100%
pest or weed control at 500 ppm (Botrytis cinerea [3]): 90 to 100%
inhibition at 50 µM (Botrytis cinerea [4]): 90 to 100%

Cc1cc([C@H]2CON=C(c3c(Sc4ccccc4Cl)nnc(C)c3C)N2)c(C)s1 (racemic) [Compound I-059]
chromatographic logP [1]: 3.31
pest or weed control at 500 ppm (Alternaria brassicae): 90 to 100%
inhibition at 50 µM (Alternaria alternata): 80 to 89%
inhibition at 50 µM (Pyrenophora teres): 90 to 100%
pest or weed control at 500 ppm (Botrytis cinerea [3]): 90 to 100%
inhibition at 50 µM (Botrytis cinerea [4]): 90 to 100%

Cc1ccc([C@H]2CON=C(c3c(Sc4ccccc4Cl)nnc4ccccc34)N2)s1 (racemic) [Compound I-067]
inhibition at 50 µM (Pyricularia oryzae): 70 to 79%
chromatographic logP [1]: 3.4
pest or weed control at 500 ppm (Alternaria brassicae): 90 to 100%
inhibition at 50 µM [2]: 80 to 89%
inhibition at 50 µM (Alternaria alternata): 90 to 100%
inhibition at 50 µM (Pyrenophora teres): 90 to 100%
pest or weed control at 500 ppm (Botrytis cinerea [3]): 90 to 100%
inhibition at 50 µM (Botrytis cinerea [4]): 90 to 100%

Cc1cc([C@@H]2CON=C(c3c(Sc4cccc(Cl)c4F)nnc(C)c3C)N2)c(C)s1 (racemic) [Compound I-071]
inhibition at 50 µM (Pyricularia oryzae): 90 to 100%
chromatographic logP [1]: 3.58
inhibition at 50 µM (Fusarium culmorum): 90 to 100%
inhibition at 50 µM [2]: 90 to 100%
inhibition at 50 µM (Alternaria alternata): 90 to 100%
inhibition at 50 µM (Pyrenophora teres): 90 to 100%
inhibition at 50 µM (Botrytis cinerea [4]): 90 to 100%

Cc1cc([C@H]2CON=C(c3c(Sc4ccc(F)c(F)c4)nnc(C)c3C)N2)c(C)s1 (racemic) [Compound I-091]
inhibition at 50 µM (Pyricularia oryzae): 80 to 89%
chromatographic logP [1]: 3.33
pest or weed control at 500 ppm (Alternaria brassicae): 80 to 89%
inhibition at 50 µM (Fusarium culmorum): 90 to 100%
inhibition at 50 µM [2]: 90 to 100%
inhibition at 50 µM (Alternaria alternata): 80 to 89%
inhibition at 50 µM (Pyrenophora teres): 90 to 100%
pest or weed control at 500 ppm (Botrytis cinerea [3]): 90 to 100%
inhibition at 50 µM (Botrytis cinerea [4]): 90 to 100%

Cc1ccc([C@H]2CON=C(c3c(Sc4ccccc4)nnc4ccccc34)N2)s1 (racemic) [Compound I-097]
inhibition at 50 µM (Pyricularia oryzae): 80 to 89%
chromatographic logP [1]: 3.14
pest or weed control at 500 ppm (Alternaria brassicae): 80 to 89%
inhibition at 50 µM (Fusarium culmorum): 80 to 89%
inhibition at 50 µM [2]: 90 to 100%
inhibition at 50 µM (Alternaria alternata): 80 to 89%
inhibition at 50 µM (Pyrenophora teres): 90 to 100%
pest or weed control at 500 ppm (Botrytis cinerea [3]): 90 to 100%
inhibition at 50 µM (Botrytis cinerea [4]): 90 to 100%

Cc1ccc(C2CON=C(c3c(Sc4cccc(Cl)c4F)nnc(C)c3C)N2)s1 (racemic) [Compound I-103]
inhibition at 50 µM (Pyricularia oryzae): 90 to 100%
chromatographic logP [1]: 3.21
inhibition at 50 µM (Fusarium culmorum): 80 to 89%
inhibition at 50 µM [2]: 90 to 100%
inhibition at 50 µM (Alternaria alternata): 90 to 100%
inhibition at 50 µM (Pyrenophora teres): 90 to 100%
inhibition at 50 µM (Botrytis cinerea [4]): 90 to 100%

Cc1ccc(C2CON=C(c3c(Sc4cccc(Cl)c4)nnc(C)c3C)N2)s1 (racemic) [Compound I-104]
inhibition at 50 µM (Pyricularia oryzae): 90 to 100%
chromatographic logP [1]: 3.14
inhibition at 50 µM (Fusarium culmorum): 90 to 100%
inhibition at 50 µM [2]: 90 to 100%
inhibition at 50 µM (Alternaria alternata): 90 to 100%
inhibition at 50 µM (Pyrenophora teres): 90 to 100%
inhibition at 50 µM (Botrytis cinerea [4]): 90 to 100%

Cc1ccc([C@H]2CON=C(c3c(Sc4cccc(F)c4)nnc(C)c3C)N2)s1 (racemic) [Compound I-125]
inhibition at 50 µM (Pyricularia oryzae): 80 to 89%
chromatographic logP [1]: 2.83
inhibition at 50 µM (Fusarium culmorum): 90 to 100%
inhibition at 50 µM [2]: 90 to 100%
inhibition at 50 µM (Alternaria alternata): 70 to 79%
inhibition at 50 µM (Pyrenophora teres): 80 to 89%
inhibition at 50 µM (Botrytis cinerea [4]): 90 to 100%

Cc1ccc([C@H]2CON=C(c3c(Sc4cccc(Cl)c4Cl)nnc4ccccc34)N2)s1 (racemic) [Compound I-131]
inhibition at 50 µM (Pyricularia oryzae): 80 to 89%
chromatographic logP [1]: 3.8
pest or weed control at 500 ppm (Alternaria brassicae): 90 to 100%
inhibition at 50 µM [2]: 90 to 100%
inhibition at 50 µM (Alternaria alternata): 90 to 100%
inhibition at 50 µM (Pyrenophora teres): 90 to 100%
pest or weed control at 500 ppm (Botrytis cinerea [3]): 90 to 100%
inhibition at 50 µM (Botrytis cinerea [4]): 90 to 100%
